According to patent US20110301170A1, “Inhibitors of JNK” (priority 2010, published 2011):
Counter-ions that a name gives are not always drawn.

Assays:
JNK = system: T1, JNK; assay: JNK Assay in vitro (phosphorylation of GST-ATF2 with [γ-33P] ATP); format: biochemical, Human; settings: IC50 affinity values; JNK isoform (JNK1α1, JNK2α2 or JNK3) not stated; Km concentrations of ATP and substrate; 30° C. for 30 min
T1 construct: Human JNK2α2 assay contains 1 nM enzyme; Human JNK1α1 assay contains 2 nM enzyme
Procedure: JNK activity was measured by phosphorylation of GST-ATF2 (19-96) with [-^33P] ATP. […] Human JNK2α2 assay contains 1 nM enzyme, 1 μM ATF2, 8 μM ATP with 1 uCi [γ-^33P] ATP. Human JNK1α1 assay contains 2 nM enzyme, 1 μM ATF2, 6 μM ATP with 1 μCi [γ-^33P] ATP. Human JNK3 (Upstate Biotech #14-501M) assay contains 2 nM enzyme, 1 μM ATF2, 4 μM ATP with 1 μCi [γ-^33P] ATP. The enzyme assay was carried out in the presence or absence of several compound concentrations. JNK and compound were pre-incubated for 10 min., followed by initiation of the enzymatic reaction by adding ATP and the substrate. The reaction mixture was incubated at 30° C. for 30 min. At the end of incubation, the reaction was terminated by transferring 25 μl of the reaction mixture to 150 μl of 10% glutathione Sepharose® slurry (Amersham #27-4574-01) containing 135 mM EDTA. The reaction product was captured on the affinity resin, and washed on a filtration plate (Millipore, MABVNOB50) with phosphate buffered saline for six times to remove free radionucleotide. The incorporation of ^33P into ATF2 was quantified on a microplate scintillation counter (Packard Topcount). Compound inhibition potency on JNK was measured by IC50 value generated from ten concentration inhibition curves fitted into the 3-parameter model: % inhibition=Maximum/(1+(IC50/[Inhibitor])^slope). Data were analyzed on Microsoft Excel for parameter estimation.

Row | SMILES | melting point [°C] | IC50 (JNK) [nM]
1 | O=C([C@H]1CC[C@H](Nc2nccc(-n3ccc4c(OC(F)F)cccc43)n2)CC1)N1CCn2cnnc2C1 (as salt: HCl) [Compound 27, {4-[4-(4-Difluoromethoxy-indol-1-yl)-pyrimidin-2-ylamino]-cyclohexyl}-(5,6-dihydro-8H-[1,2,4]triazolo[4,3-a]pyrazin-7-yl)-methanone] | 175 to 178 | 
2 | Cc1cccc2c1nnn2-c1ccnc(N[C@H]2CC[C@H](C(=O)N3CCn4cc(C(F)(F)F)nc4C3)CC2)n1 (as salt: HCl) [Compound 33, {4-[4-(4-Methyl-benzotriazol-1-yl)-pyrimidin-2-ylamino]-cyclohexyl}-(2-trifluoromethyl-5,6-dihydro-8H-imidazo[1,2-a]pyrazin-7-yl)-methanone] | 258 to 260 | 
3 | Cc1cccc2c1nnn2-c1ccnc(N[C@H]2CC[C@H](C(=O)N3CCn4cnnc4C3)CC2)n1 (as salt: HCl) [Compound 34, (5,6-Dihydro-8H-[1,2,4]triazolo[4,3-a]pyrazin-7-yl)-{4-[4-(4-methyl-benzotriazol-1-yl)-pyrimidin-2-ylamino]-cyclohexyl}-methanone] | 236 to 238 | 
4 | O=C([C@H]1CC[C@@H](Nc2nccc(-n3nnc4c(C(F)(F)F)cccc43)n2)CC1)N1CCn2cnnc2C1 (as salt: HCl) [Compound 37, (5,6-Dihydro-8H-[1,2,4]triazolo[4,3-a]pyrazin-7-yl)-{4-[4-(4-trifluoromethyl-benzotriazol-1-yl)-pyrimidin-2-ylamino]-cyclohexyl}-methanone] | 200 to 210 | 
5 | CC(C)(O)c1cccc2c1nnn2-c1ccnc(N[C@H]2CC[C@H](C(=O)N3CCn4cnnc4C3)CC2)n1 (as salt: HCl) [Compound 38, (5,6-Dihydro-8H-[1,2,4]triazolo[4,3-a]pyrazin-7-yl)-(4-{4-[4-(1-hydroxy-1-methyl-ethyl)-benzotriazol-1-yl]-pyrimidin-2-ylamino}-cyclohexyl)-methanone] | 180 to 200 | 
6 | Cc1nnc2n1CCN(C(=O)[C@H]1CC[C@H](Nc3nccc(-n4nnc5c(C(C)(C)O)cccc54)n3)CC1)C2 (as salt: HCl) [Compound 39, (4-{4-[4-(1-Hydroxy-1-methyl-ethyl)-benzotriazol-1-yl]-pyrimidin-2-ylamino}-cyclohexyl)-(3-methyl-5,6-dihydro-8H-[1,2,4]triazolo[4,3-a]pyrazin-7-yl)-methanone] | 145 to 150 | 
7 | O=C([C@H]1CC[C@H](Nc2nccc(-n3nnc4c(OC(F)F)cccc43)n2)CC1)N1CCn2cnnc2C1 (as salt: HCl) [Compound 44, {4-[4-(4-Dilfuoromethoxy-benzotriazol-1-yl)-pyrimidin-2-ylamino]-cyclohexyl}-(5,6-dihydro-8H-[1,2,4]triazolo[4,3-a]pyrazin-7-yl)-methanone] | 185 to 190 | 
8 | Cc1nnc2n1CCN(C(=O)[C@H]1CC[C@H](Nc3nccc(-n4nnc5c(OC(F)F)cccc54)n3)CC1)C2 (as salt: HCl) [Compound 45, {4-[4-(4-Difluoromethoxy-benzotriazol-1-yl)-pyrimidin-2-ylamino]-cyclohexyl}-(3-methyl-5,6-dihydro-8H-[1,2,4]triazolo[4,3-a]pyrazin-7-yl)-methanone] | 190 to 195 | 
9 | O=C([C@H]1CC[C@H](Nc2nccc(-n3ncc4c(C(F)(F)F)cccc43)n2)CC1)N1CCn2cnnc2C1 [Compound 29, (5,6-Dihydro-8H-[1,2,4]triazolo[4,3-a]pyrazin-7-yl)-{4-[4-(4-trifluoromethyl-indazol-1-yl)-pyrimidin-2-ylamino]-cyclohexyl}-methanone] | 223 to 227 | 135

Other lines, results leading:

Row | melting point [°C] | IC50 (JNK) [nM] | SMILES
10 | 186 to 188 |  | C=C(C)c1cccc2c1ccn2-c1ccnc(N[C@H]2CC[C@H](C(=O)N3CCn4cnnc4C3)CC2)n1 (as salt: HCl) [Compound 25, (5,6-Dihydro-8H-[1,2,4]triazolo[4,3-a]pyrazin-7-yl)-{4-[4-(4-isopropenyl-indol-1-yl)-pyrimidin-2-ylamino]-cyclohexyl}-methanone]
11 | 216.6 to 221 |  | C=C(C)c1cccc2c1ccn2-c1ccnc(N[C@H]2CC[C@H](C(=O)N3CCn4c(C)nnc4C3)CC2)n1 (as salt: HCl) [Compound 26, {4-[4-(4-Isopropenyl-indol-1-yl)-pyrimidin-2-ylamino]-cyclohexyl}-(3-methyl-5,6-dihydro-8H-[1,2,4]triazolo[4,3-a]pyrazin-7-yl)-methanone]
12 | 205 to 210 |  | Cc1nnc2n1CCN(C(=O)[C@H]1CC[C@H](Nc3nccc(-n4ccc5c(OC(F)F)cccc54)n3)CC1)C2 (as salt: HCl) [Compound 28, {4-[4-(4-Difluoromethoxy-indol-1-yl)-pyrimidin-2-ylamino]-cyclohexyl}-(3-methyl-5,6-dihydro-8H-[1,2,4]triazolo[4,3-a]pyrazin-7-yl)-methanone]
13 | 246 to 248 |  | Cc1cccc2c1nnn2-c1ccnc(N[C@H]2CC[C@H](C(=O)N3CCn4c(C)nnc4C3)CC2)n1 (as salt: HCl) [Compound 35, {4-[4-(4-Methyl-benzotriazol-1-yl)-pyrimidin-2-ylamino]-cyclohexyl}-(3-methyl-5,6-dihydro-8H-[1,2,4]triazolo[4,3-a]pyrazin-7-yl)-methanone]
14 | 258 to 260 | 165 | Cc1nnc2n1CCN(C(=O)[C@H]1CC[C@H](Nc3nccc(-n4ncc5c(C(F)(F)F)cccc54)n3)CC1)C2 [Compound 30, (3-Methyl-5,6-dihydro-8H-[1,2,4]triazolo[4,3-a]pyrazin-7-yl)-{4-[4-(4-trifluoromethyl-indazol-1-yl)-pyrimidin-2-ylamino]-cyclohexyl}-methanone]
